Patent publication US6653311B1, “5-lipoxygenase inhibitors: (2-azinylamino) quinone derivatives” (Board of Supervisors of Louisiana State University, priority 2002, dated 2003)
Like-named read-outs stand apart in the source and are kept apart here.

How the values were obtained:
COX-1 = COX-1 (Homo sapiens, UniProt P23219); assay: In vitro inhibition of COX-1 activity; details: read-out: COX-1 percent inhibition
Description: (§1) Percent inhibition mean values ±SD from at least three individual determinations are shown.

[1] = tested on: arachidonic acid-induced ear inflammation in mice; assay: Arachidonic acid-induced ear inflammation in mice (AAE test); assay type: in vivo; details: for change in vivo at 50 µg/ear / change in vivo at 100 µg/ear / change in vivo at 250 µg/ear: Mus musculus, mice, topical, read-out: % inhibition of AA-induced ear inflammation; for change in vivo at 50 µg/ear: 50 μg/ear; for change in vivo at 100 µg/ear: 100 μg/ear; for change in vivo at 250 µg/ear: 250 μg/ear
COX-2 = biological target: T1, COX-2 (Homo sapiens, UniProt P35354); assay: In vitro inhibition of COX-2 activity; details: read-out: COX-2 percent inhibition
T1 sequence (P35354 18-604): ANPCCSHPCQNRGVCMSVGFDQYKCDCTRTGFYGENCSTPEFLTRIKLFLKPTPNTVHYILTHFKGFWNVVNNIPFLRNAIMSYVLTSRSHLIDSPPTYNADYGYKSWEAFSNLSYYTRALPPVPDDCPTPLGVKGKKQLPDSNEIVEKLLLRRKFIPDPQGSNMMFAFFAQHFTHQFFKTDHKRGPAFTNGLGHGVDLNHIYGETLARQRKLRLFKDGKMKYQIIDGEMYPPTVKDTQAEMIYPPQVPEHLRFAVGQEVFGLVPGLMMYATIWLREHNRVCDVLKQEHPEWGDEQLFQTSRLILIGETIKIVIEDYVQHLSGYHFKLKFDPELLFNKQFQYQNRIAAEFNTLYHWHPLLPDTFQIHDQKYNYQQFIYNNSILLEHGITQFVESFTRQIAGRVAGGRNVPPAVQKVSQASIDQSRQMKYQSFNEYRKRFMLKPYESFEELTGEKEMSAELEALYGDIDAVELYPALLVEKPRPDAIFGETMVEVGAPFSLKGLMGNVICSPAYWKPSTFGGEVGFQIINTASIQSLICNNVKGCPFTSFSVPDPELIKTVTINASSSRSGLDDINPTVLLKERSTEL
Description: as §1

5-lipoxygenase (5-LO) = biological target: T2, 5-lipoxygenase (5-LO) (Oryctolagus cuniculus, UniProt G1SNX0); assay: Radioisotopic assay of 5-LO activity (LTB4 formation from 14C-arachidonic acid) in rabbit peritoneal PMNL stimulated with A-23187; assay type: cell-based; details: for inhibition at 1 µM: rabbit peritoneal neutrophils (PMNL), mean ± s.d. of three experiments in duplicate, read-out: % Inhibition (percent inhibition of LTB4 formation); for in vitro 5-LO activity in words: peritoneal PMNL
T2 construct: Polymorphonuclear leukocytes (PMNLs) were purified from rabbits by glycogen-intraperitoneal elicited intraperitoneal recruitment; endogenous in cells; host or cells: rabbit peritoneal polymorphonuclear leukocytes (PMNL), glycogen-elicited
T2 sequence (G1SNX0 1-674): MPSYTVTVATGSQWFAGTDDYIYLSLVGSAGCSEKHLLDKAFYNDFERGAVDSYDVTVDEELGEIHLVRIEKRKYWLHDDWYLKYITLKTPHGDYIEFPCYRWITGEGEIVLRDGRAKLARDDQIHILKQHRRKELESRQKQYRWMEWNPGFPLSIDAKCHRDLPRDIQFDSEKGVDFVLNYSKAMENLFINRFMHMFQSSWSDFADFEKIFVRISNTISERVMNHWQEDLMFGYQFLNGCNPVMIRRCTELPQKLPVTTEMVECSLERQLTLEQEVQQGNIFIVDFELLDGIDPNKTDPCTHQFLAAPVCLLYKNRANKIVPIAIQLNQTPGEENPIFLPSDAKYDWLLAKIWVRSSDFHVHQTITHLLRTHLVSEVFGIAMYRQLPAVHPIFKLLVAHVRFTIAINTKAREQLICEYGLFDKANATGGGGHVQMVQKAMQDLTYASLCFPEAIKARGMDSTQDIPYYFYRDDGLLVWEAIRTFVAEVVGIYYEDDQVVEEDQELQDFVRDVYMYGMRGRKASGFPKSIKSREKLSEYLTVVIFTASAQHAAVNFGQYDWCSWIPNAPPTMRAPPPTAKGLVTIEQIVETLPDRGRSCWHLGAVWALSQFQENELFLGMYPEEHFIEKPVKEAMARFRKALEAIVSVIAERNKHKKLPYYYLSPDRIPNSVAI
Description: The 5-LO enzyme, which is found primarily in cells of myeloid origin such as polymorphonuclear leukocytes (“PMNL”), eosinophils, and macrophages, catalyzes the first step of the biochemical pathway in which arachadonic acid (“AA”) is,converted into LTA4. […] To test the inhibition of the quinone derivatives on the activity of 5-LO rabbit polymorphonuclear leucocytes (PMNLs) were used.
Polymorphonuclear leukocytes (PMNLs) were purified from rabbits by glycogen-intraperitoneal elicited intraperitoneal recruitment, as descrited in T. Yatabe et al., “Studies on 5-lipoxygenase inhibitors: I. Synthesis and 5-lipoxygenase inhibitory activity of novel hydroxanic acid derivatives,” chem. Pharm. Bull., vol. 46, pp. 966-972 (1998). An intraperitoneal injection of 300 mL of 0.1% (w/v) glycogen in sterile saline was administered 6 h before the rabbits were sacrificed by an intravascular injection of Nembutal. Peritoneal exudates were collected in 5 μM EGTA, and residual red cells were removed by lysis in ammonium chloride. These cell preparations were obtained with greater than 96% purity, as assessed by Wright-Giemsa staining and greater than 95% viability as assessed by Trypan blue exclusion.
PMNL cells in suspension were pre-incubated for 20 min at room temperature with ^14C-labeled arachadonic acid (AA) and diluted to 3000 cells μL^−1. Thereafter, the calcium ionophore A-23187 (1 μg/mL) was added to stimulate LTB4 production, and the cells further incubated for 15 min under stirring at 37° C. After incubation, the aqueous samples were successively shaken with a mixture of chloroform/methanol/formic acid (12:12:1) for 30 sec and then with chloroform for 10 sec. Organic phases containing LTB4, 5-HPETE (5-hydroperoxyeicosatetraenoic acid), diHPETEs (dihydroperoxyeicosatetraenoic acids), and prostaglandins (PGs) were pooled, evaporated to dryness under nitrogen and dissolved into a small amount of chloroform-MeOH (1:1). Separation of the 5-LO metabolites was performed by thin layer chromatography (TLC) on silica gel G plates developed in diethyl ether-hexane-acetic acid (60:40:1, v/v/v).
Bands containing 5-lipoxygenase (5-LO) metabolites were scraped from the TLC plates, and ^14C levels were quantitatively measured by liquid scintillation. 5-LO activity was an obtained from the amount of ^14C-arachidonic acid converted into LTB4 after the prelabeled PMNL cells were stimulated to produce LTB4 by the calcium ionophore as described above. IC50 was calculated as the concentration of the 5-LO antagonist that produced 50% inhibition of the metabolite conversion.
[…] IC50 values, calculated as theconcentration of test compound required to cause 50% inhibition of LTB4 formation, were also determined for some representative examples. […] These compounds, in general, correspond to compounds bearing the more lipophilic quinone fragments. […] See S. Ohkawa et al., “Dual Inhibition of Thromboxane A2 Synthetase and 5-Lipoxygenase with Scavenging Activity of Active Oxygen Species. Synthesis of a Novel Series of (3-Pyridylmethyl)benzoquinone Derivatives,” J. Med. Chem., vol. 34, pp. 267-276 (1991).

5-LO = biological target: T3, 5-LO (Rattus norvegicus, UniProt P12527); assay: 5-LO inhibition by radioimmunoassay (RIA) in rat peritoneal PMNL; details: inhibitors at 'AM final concentration' [sic], mean ± SD
T3 sequence (P12527 1-673): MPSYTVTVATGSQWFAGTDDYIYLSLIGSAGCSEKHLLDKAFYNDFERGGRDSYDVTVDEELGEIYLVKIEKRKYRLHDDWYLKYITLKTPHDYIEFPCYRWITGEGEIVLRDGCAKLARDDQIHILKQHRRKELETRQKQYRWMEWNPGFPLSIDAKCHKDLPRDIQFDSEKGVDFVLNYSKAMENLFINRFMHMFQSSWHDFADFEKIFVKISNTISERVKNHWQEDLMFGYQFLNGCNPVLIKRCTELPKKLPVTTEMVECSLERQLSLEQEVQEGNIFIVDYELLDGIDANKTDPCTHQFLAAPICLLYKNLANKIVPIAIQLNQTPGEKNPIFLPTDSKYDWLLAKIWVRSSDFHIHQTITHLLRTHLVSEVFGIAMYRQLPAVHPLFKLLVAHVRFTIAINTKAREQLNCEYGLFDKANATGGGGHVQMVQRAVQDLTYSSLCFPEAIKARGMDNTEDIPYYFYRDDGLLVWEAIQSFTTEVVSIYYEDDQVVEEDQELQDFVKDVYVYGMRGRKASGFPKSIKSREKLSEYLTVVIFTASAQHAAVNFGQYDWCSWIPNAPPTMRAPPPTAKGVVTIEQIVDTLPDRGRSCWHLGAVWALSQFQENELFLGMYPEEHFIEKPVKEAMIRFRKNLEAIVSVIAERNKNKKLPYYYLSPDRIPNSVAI
Description: as §1

[2] = measured on PMNL, read-out: IC50 (concentration causing 50% inhibition of LTB4 formation), in parentheses (converted)

Chain of COX-1 (P23219 24-599): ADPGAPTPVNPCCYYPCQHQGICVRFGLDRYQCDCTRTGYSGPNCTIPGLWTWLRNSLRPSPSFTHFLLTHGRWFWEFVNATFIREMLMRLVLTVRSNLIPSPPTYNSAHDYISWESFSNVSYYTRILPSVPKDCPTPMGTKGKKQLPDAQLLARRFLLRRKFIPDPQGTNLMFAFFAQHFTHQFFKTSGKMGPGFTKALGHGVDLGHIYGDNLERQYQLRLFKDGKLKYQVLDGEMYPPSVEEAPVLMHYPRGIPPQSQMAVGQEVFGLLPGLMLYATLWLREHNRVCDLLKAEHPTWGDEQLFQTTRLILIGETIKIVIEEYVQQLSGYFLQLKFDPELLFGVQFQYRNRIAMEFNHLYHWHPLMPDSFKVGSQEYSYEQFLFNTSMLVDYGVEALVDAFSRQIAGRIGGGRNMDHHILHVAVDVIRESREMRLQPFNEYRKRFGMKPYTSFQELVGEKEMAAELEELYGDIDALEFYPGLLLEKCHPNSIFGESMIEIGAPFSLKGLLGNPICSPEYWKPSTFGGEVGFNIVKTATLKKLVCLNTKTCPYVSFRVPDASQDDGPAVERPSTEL

SMILES | inhibition at 500 µM (COX-1) [%] | % inhibition (AAE test) ([1]; 4c 100 mg (ear) as printed, alone or co-applied with Indomethacin) [%] | change in vivo at 50 µg/ear [1] [%] | change in vivo at 100 µg/ear [1] [%] | change in vivo at 250 µg/ear [1] [%] | inhibition at 500 µM (COX-2) [%] | IC50 (5-lipoxygenase (5-LO); PMNL, read-out: IC50 (5-LO, LTB4 formation)) [nM] | inhibition at 1 µM (5-lipoxygenase (5-LO)) [%] | in vitro 5-LO activity in words (5-lipoxygenase (5-LO)) | melting point [°C] | 5-LO percent inhibition (5-LO) [%] | IC50 (5-lipoxygenase (5-LO); [2]) [nM]
CC1=CC(=O)C(Nc2ccccn2)=CC1=O [Compound 4c, 2-Methyl-5-(pyridin-2-ylamino)-[1,4]benzoquinone] | 5.2 ± 6.2 | 66 | -52.8 ± 6.4 | -63.7 ± 3.9 | -84.9 ± 2.4 | 20.1 ± 0.7 | 18 | 94 | potent in vitro 5-LO inhibitors | 137 to 139 | 85.8 ± 13.1 | –
COC1=C(OC)C(=O)C(Nc2ccccn2)=C(C)C1=O [Compound 4e, 2,3-Dimethoxy-5-methyl-6-(pyridin-2-ylamino)-[1,4]benzoquinone] | 11.2 ± 2.7 | – | – | – | – | 9.4 ± 0.4 | – | 92 ± 4.7 | potent in vitro 5-LO inhibitors | 79 to 81 | 95.4 ± 4.0 | 155
O=C1C=C(Nc2ccccn2)C(=O)c2ccccc21 [Compound 4i, 2-(Pyridin-2-ylamino)-[1,4]naphthoquinone] | 23.1 ± 4.6 | – | – | -20.4 ± 2.1 | – | 16.5 ± 6.1 | – | 100 ± 0.4 | potent in vitro 5-LO inhibitors | 205 to 206 | 86.2 ± 10.0 | 45
O=C1C=C(Nc2ccc(Br)cn2)C(=O)c2ccccc21 [Compound 4l, 2-(5-Bromopyndin-2-ylamino)-[1,4]naphthoquinone] | 16.8 ± 1.4 | – | – | -42.2 ± 3.1 | -30.6 ± 2.2 | 8 ± 3.6 | – | 100 ± 0.5 | potent in vitro 5-LO inhibitors | 243 to 244 | 85.5 ± 4.5 | 142
CC1=CC(=O)C(Nc2ncccn2)=CC1=O [Compound 4p, 2-Methyl-5-(pyrimidin-2-ylamino)-[1,4]benzoquinone] | 8.4 ± 6.4 | – | – | – | – | 0 | – | 62 ± 1.7 | – | 172 to 174 | 90.4 ± 3.3 | –
O=C1C=C(Nc2ncccn2)C(=O)c2ccccc21 [Compound 4r, 2-(Pyrimidin-2-ylamino)-[1,4]naphthoquinone] | 14.4 ± 1.3 | – | – | -40 ± 1.9 | -29 ± 1.8 | 6.6 ± 14.9 | – | 98 ± 1.1 | potent in vitro 5-LO inhibitors | 245 to 247 | 96.4 ± 1.9 | 165
CC1=C(C)C(=O)C(Nc2nc(C)cc(C)n2)=CC1=O [Compound 4s, 2,3-Dirnethyl-5-(4,6-dimethylpyfimidin-2-ylamino)-[1,4]benzoquinone] | 8.4 ± 11.6 | – | -17.3 ± 1.1 | -33.9 ± 3.9 | – | 3.3 ± 12.9 | – | 96 ± 1.7 | potent in vitro 5-LO inhibitors | 188 to 189 | 89.6 ± 2.3 | 175
Cc1cc(C)nc(NC2=CC(=O)c3ccccc3C2=O)n1 [Compound 4t, 2-(4,6-Dimethylpyrimidin-2-ylamino)-[1,4]naphthoquinone] | 8.2 ± 2.5 | – | -3.3 ± 1.6 | – | – | 0 | – | 98 ± 1.3 | potent in vitro 5-LO inhibitors | 196 to 197 | 86.3 ± 3.0 | 161
